The experiment addresses T1, LpxC enzyme (Escherichia coli, UniProt P0A725).
T1 sequence (P0A725 1-305): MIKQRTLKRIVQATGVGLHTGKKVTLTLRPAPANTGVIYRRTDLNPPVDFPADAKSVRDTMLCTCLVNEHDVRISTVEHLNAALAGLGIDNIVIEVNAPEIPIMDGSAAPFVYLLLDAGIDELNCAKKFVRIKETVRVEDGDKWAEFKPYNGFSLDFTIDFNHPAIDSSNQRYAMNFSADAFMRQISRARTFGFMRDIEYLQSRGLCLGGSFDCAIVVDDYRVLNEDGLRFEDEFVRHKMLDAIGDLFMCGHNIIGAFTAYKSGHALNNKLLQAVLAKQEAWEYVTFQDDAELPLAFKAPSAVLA
In words: standard LpxC assay (RapidFire high-throughput mass spectrometry). It counts as biochemical. As to conditions: 0.2 nM LpxC enzyme, 1.0 μM UDP-3-O-(R-3-hydroxymyristoyl)-N-acetylglucosamine, 60 minutes at room temperature; read-out: E. coli IC50. The method, then: The standard LpxC assay consists of 0.2 nM LpxC enzyme, 1.0 μM UDP-3-O—(R-3-hydroxymyristoyl)-N-acetylglucosamine, and test compound, in assay buffer and 2% DMSO. Assay buffer is comprised of 25 mM HEPES, pH 7.3, 150 mM NaCl, 2.0 mM DTT, and 0.01% BSA. The enzyme reaction is carried out in a 96-well assay plate, in a final volume of […]. Solutions of test compounds are prepared in 100% DMSO. Reaction additions, in order, are (1) 2.0 μL compound solution, (2) 80 μL of assay buffer, (3) […] of 10 μM UDP-3-O—(R-3-hydroxymyristoyl)-N-acetylglucosamine (in assay buffer) and, (4) 10 μL of LpxC enzyme (20 nM in assay buffer) to initiate the reaction. In positive control reactions, addition (1) has 2.0 μL of 100% DMSO (without compound); these reactions are used as the total signal (TSB) value. Reactions are incubated at room temperature for 60 minutes when 10 μL of 1 N HCl is added to stop the reaction. The plate is shaken by hand for 10 seconds to ensure complete quenching. Assay plates are sealed with foil tape, and stored at −80° C. for 24-48 hr prior to analysis.
The concentrations of substrate and product in the reaction mixtures are determined with BioTrove's proprietary RapidFire™ high-throughput mass spectrometry (HTMS). Assay mixtures are partially purified with reverse phase chromatography, where they are washed with water containing 5 mM ammonium formate and eluted onto the mass spectrometer in 80% acetonitrile, 20% water, and 5 mM ammonium formate. The mass spectrometry peak areas of the substrate and product are measured to determine the concentration of these analytes. The assay signal is the percentage of substrate that is converted to product. Percent inhibition, % I, in test samples is determined from the following equation: […]
Using this method, the following E. coli IC50 (nM) data were obtained for selected Compounds of Formula (I);

Molecules are shown by their SMILES.

Consider `C[C@@H](O)[C@@H](C(=O)NO)N1CC2CN(c3ccc(C#Cc4ccccc4)cc3)CCN2C1=O` (stereo partly shown) [Compound 91], for which the half-inhibitory concentration (IC50) is less than 5 µM.

Turning to `C[C@@H](O)[C@@H](C(=O)NO)N1CC2CN(Cc3ccc(C#Cc4ccccc4)cc3)CCN2C1=O` (stereo partly shown) [Compound 88], the 50% inhibitory concentration (IC50) was less than 5 µM.

For the compound `C[C@@H](O)[C@@H](C(=O)NO)N1Cc2cc(-c3ccc(-c4ccccc4)cc3)ccc2C1=O` [Compound 32], the IC50 was less than 0.05 µM.

Turning to `CC(O)C(C(=O)NO)N1C(=O)c2ccc(C#Cc3ccccc3)cc2C1=O` (stereo not shown) [Compound 74], the IC50 was less than 5 µM.

As to `CC(O)C(C(=O)NO)N1C(=O)c2ccc(-c3ccccc3)cc2C1=O` (stereo not shown) [Compound 79], the IC50 is less than 5 µM.

For the compound `C[C@@H](O)[C@@H](C(=O)NO)N1Cc2cc(N3CCN(c4ccccc4)CC3)ccc2C1=O` [Compound 52], the IC50 is less than 5 µM.

As for `C[C@@H](O)[C@@H](C(=O)NO)N1Cc2cc(C#Cc3cccc(-c4ccccc4)c3)ccc2C1=O` [Compound 14], the half-maximal inhibitory concentration (IC50) is less than 5 µM.

Consider `C[C@@H](O)[C@@H](C(=O)NO)N1Cc2cc(-c3ccccc3)ccc2C1=O` [Compound 26], for which the IC50 was less than 5 µM.

For the compound `C[C@@H](O)[C@@H](C(=O)NO)N1Cc2ccc(C#Cc3ccccc3)cc2C1=O` [Compound 20], the IC50 was less than 5 µM.

Turning to `C[C@@H](O)[C@@H](C(=O)NO)N1Cc2cc(C#Cc3ccc(-c4ccccc4)cc3)ccc2C1=O` [Compound 13], the IC50 is less than 0.05 µM.

With `CC(O)C(C(=O)NO)N1C(=O)c2ccc(Br)cc2C1=O` (stereo not shown) [Compound 80], the IC50 was less than 5 µM.

Take `C[C@@H](O)[C@@H](C(=O)NO)N1Cc2cc(N3CCC(c4ccc(-c5ccccc5)cc4)CC3)ccc2C1=O` [Compound 53]: the concentration for half-maximal inhibition (IC50) is less than 5 µM.

For `C[C@@H](O)[C@@H](C(=O)NO)N1Cc2cc(C#Cc3ccccc3)ccc2C1=O` [Compound 11], the half-maximal inhibitory concentration (IC50) is less than 5 µM.

As for `C[C@@H](O)[C@@H](C(=O)NO)N1Cc2cc(Br)ccc2C1=O` [Compound 12], the IC50 was less than 5 µM.

Consider `C[C@@H](O)[C@@H](C(=O)NO)N1Cc2cc(N3CCN(c4ccc(C(=O)Cc5ccccc5)cc4)CC3)ccc2C1=O` [Compound 50], for which the IC50 is less than 5 µM.

On to `C[C@@H](O)[C@@H](C(=O)NO)N1Cc2ccc(Cl)cc2C1=O` [Compound 21], for which the concentration for half-maximal inhibition (IC50) is less than 5 µM.

In the case of `C[C@@H](O)[C@@H](C(=O)NO)N1Cc2cc(Cc3ccc(-c4ccccc4)cc3)ccc2C1=O` [Compound 31], the IC50 is less than 0.05 µM.

`C[C@@H](O)[C@@H](C(=O)NO)N1Cc2cc(-c3ccc(C#Cc4ccccc4)cc3)ccc2C1=O` [Compound 36]: the half-maximal inhibitory concentration (IC50) is less than 0.05 µM.

For the compound `CC(O)C(C(=O)NO)n1[nH]c2cc(C#Cc3ccccc3)ccc2c1=O` (stereo not shown) [Compound 65], the half-maximal inhibitory concentration (IC50) was less than 5 µM.

(Values after patent US20110212078A1, “SYNTHESIS AND USE OF HETEROCYCLIC ANTIBACTERIAL AGENTS” (priority 2008, published 2011).)
